From patent US10941114B2, “Small molecule lipid II inhibitors” (University Of Maryland, Baltimore, priority 2015, dated 2021)
Converted amounts (≈) assume the structure as drawn. Structures can show the parent of a compound that is named as a salt. Where two headings read alike, the source gives them in different places.

What was measured:
Staphylococcus aureus = assay: Antibacterial activity assay (MIC, broth dilution); format: cell-based; design: S. aureus Killing / Bacterial Killing S. aureus: unit not given here; details: for MIC: Staphylococcus aureus
Enterococcus faecium = assay: Antibacterial activity assay (MIC, broth dilution); format: cell-based; design: Bacterial Killing E. faecium: unit: ug/mL
Method in brief: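 Broth dilution MIC per CLSI (M07-A10) in cation-adjusted Mueller Hinton broth with 10% brain-heart infusion; MIC is the lowest concentration preventing visible growth, in μg/mL. Some compounds were run by broth microdilution.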

Acinetobacter baumannii = assay: Antibacterial activity assay (MIC, broth dilution); format: cell-based; details: for MIC: Acinetobacter baumannii
Method: Determination of the Minimal Inhibitory Concentrations (MIC) by dilution was carried out by broth dilution according to CLSI standards. See CLSI, Methods for Dilution Antimicrobial Susceptibility Tests for Bacteria That Grow Aerobically; Approved Standard—Eighth Edition. 2009, the contents of which are hereby incorporated by reference. Briefly, the minimum inhibitory concentration MIC, is the lowest concentration of a compound that prevents visible growth of a bacterium, in other words at which it has bacteriostatic activity.
Compounds were tested for MIC by methods known in the art and described in CLSI, Methods for Dilution Antimicrobial Susceptibility Tests for Bacteria That Grow Aerobically; Approved Standard—Tenth Edition. CLSI document M07-A10. Wayne, Pa.: Clinical and Laboratory Standards Institute, 2015, which is hereby incorporated by reference for these methods.
Selected compounds also were tested by broth microdilution methods known in the art and described in CLSI, Methods for Dilution Antimicrobial Susceptibility Tests for Bacteria That Grow Aerobically; Approved Standard—Tenth Edition. CLSI document M07-A10. Wayne, Pa.: Clinical and Laboratory Standards Institute, 2015, which is hereby incorporated by reference. Structures of selected compounds in the tables are listed below.

[1] = Cytotoxicity testing (CC50, MTS assay); details: human
[2] = Maximum Tolerated Dose (MTD) and in vivo toxicity at the MTD; details: dose-escalation; final MTD
[3] = Pharmacokinetic study in mice (plasma concentration by LC/MS/MS)
[4] = Surface Plasmon Resonance determination of Lipid II binding; details: SPR; FIG. 16
Method: Short-chain water-soluble LII containing a lipid tail of three isoprene units (3-LII) was generated and purified essentially according to methods known in the art. See Breukink et al., Lipid II is an intrinsic component of the pore induced by nisin in bacterial membranes. J. Biol. Chem. 278(22):19898-19903, 2003, the contents of which are hereby incorporated by reference. Typically, M. flavus vesicles (120 μmol lipid-Pi) were incubated together with 500 μmol UDP-GlcNAc, 500 μmol UDP-MurNAC-pentapeptide and 400 μmol farnesyl phosphate in 100 mM Tris-HCl pH 8.0, 5 mM MgCl2. The incubation period was approximately two hours at room temperature for 3-LII (3-P). The synthesis of 3-Lipid II was followed by RP-8 reversed phase TLC (Merck™) developed with 75% methanol. For purification, the membranes were removed by centrifugation at 40,000×g; the supernatant was collected and loaded on a C18 HPLC column and eluted with a linear gradient from 50 mM ammonium bicarbonate to 100% methanol in 30 minutes. Farnesyl-Lipid II (3-Lipid II) eluted at approximately 60% methanol. Its identity was confirmed by mass spectroscopy.
Surface Plasmon Resonance binding experiments were carried out on a BIAcore T100 system (BIAcore™ Inc., Piscataway, N.Y.) at 25° C. The assay buffer was 10 mM HEPES, 150 mM NaCl, 0.05% surfactant P20, pH 7.4 (+3 mM EDTA) supplemented with 10% DMSO. 3-Lipid II (50 RUs) was immobilized on CMS sensor chips using the amine-coupling chemistry recommended by the manufacturer. For initial determination of binding, compounds were introduced into the flow-cells (30.mu·1/min) in the running buffer at 10 μM. Resonance signals were corrected for nonspecific binding by subtracting the background of the control flow-cell. Binding to immobilized 3-LII on the chip surface was determined and scored “yes” in Table 5 when more than 20 Resonance Units or RUs were detected. Detection of less than 20 RUs was scored as “no”, meaning no significant binding to LII. After each analysis, the sensor chip surfaces were regenerated with 50 mM NaOH for 30 seconds at a flow rate 100 μL/min, and equilibrated with the buffer prior to next injection. For binding kinetics studies, binding isotherms were analyzed with manufacturer-supplied software for BIAcore™ T100.

[5] = in vivo, iv, 10 mg/kg
HeLa cells = assay: Cytotoxicity testing (CC50, MTS assay)
Enterococcus faecalis = assay: Antibacterial activity assay (MIC, broth dilution); format: cell-based
Escherichia coli = assay: Antibacterial activity assay (MIC, broth dilution); format: cell-based
Streptococcus pneumoniae = assay: Antibacterial activity assay (MIC, broth dilution); format: cell-based
Pseudomonas aeruginosa = assay: Antibacterial activity assay (MIC, broth dilution); format: cell-based; details: MMX#-ATCC# 103-27853
[6] = Liver microsome stability testing; format: in vitro ADME; details: positive control; human liver microsomes
Method: The in vitro microsome stability assay was performed using human liver microsomes and a Biomek FXP™ liquid handling workstation to deliver reagents to a deep 96-well plate on a shaking peltier with temperature controls. Human liver microsomes were purchased from Corning™. The test compound was incubated in an aqueous reaction mixture (200 μL total volume) consisting of human liver microsomes (150 mixed donor pool) and NADPH Regenerating System Solutions A and B (Corning™) in the presence of 100 mM potassium phosphate buffer (pH 7.4). NADPH Regenerating System Solution A comprises nicotinamide adenine dinucleotide phosphate (NADP+) and glucose 6-phosphate; NADPH Regenerating System Solution B contains glucose-6-phosphate dehydrogenase. Solutions A and B were combined prior to adding to the reaction plate to generate a supply of NADPH. The NADPH was added last to initiate the reactions simultaneously. The final concentration of the test compound was 10 μM and the microsomal protein concentration was 0.5 mg/mL. […]
The half-life (t½) was calculated using the following equation:
[formula] where “slope” is the slope of the line formed by ln(% remaining test compound) vs. time. The in vitro intrinsic clearance (CLint) was calculated using equation: […]

in vivo [7] = details: CD1, mouse, plasma, iv, 10 mg/kg
in vivo [8] = details: both, ICR, mouse
[9] = S. aureus USA300 (MRSA), average of two replicates, read-out: MIC SA
[10] = Table 16, CLSI M07-A10 dilution method, read-out: MIC S. aureus
[11] = ATCC 1509 / VRE, text: E. faecium EF1509 (VRE), footnote: Enterococcus faecalis ATCC 1509, average of two replicates, read-out: MIC EF
[12] = Enterococcus faecium, Table 16, CLSI M07-A10 dilution method, read-out: MIC E. faecium
[13] = A. baumannii 2-2-2 (colistin-resistant clinical isolate), average of two replicates, read-out: MIC AB
[14] = Table 16, CLSI M07-A10 dilution method, read-out: MIC A. baumannii
[15] = single dose of 10 mg/kg by intravenous injection in CD1 mice (n=3)
[16] = determined as in Example 1E (MIC)

Cc1ccc(-c2cc(-c3ccc(Cl)cc3)cc(/C=C/c3ccc(N(C)CCO)cc3)[n+]2C)cc1.[I-] [Compound 9p, (E)-4-(4-chlorophenyl)-2-(4-((2-hydroxyethyl)(methyl)amino)styryl)-1-methyl-6-(p-tolyl)pyridin-1-ium iodide]
MIC (Staphylococcus aureus; [9]): 0.25 µg/mL | MIC (Staphylococcus aureus; [10]): 0.25 µg/mL | MIC (Enterococcus faecium; [11]): 2 µg/mL | MIC (Enterococcus faecium; [12]): 2 µg/mL | MIC (Acinetobacter baumannii; [13]): 16 µg/mL | MIC (Acinetobacter baumannii; [14]): 16 µg/mL | CC50 at 24 h ([1]; HeLa cells): 5.5 µg/mL

CN(CCC#N)c1ccc(/C=C/c2cc(-c3ccc(Br)cc3)cc(-c3ccc(Br)cc3)[n+]2C)cc1.[I-] [Compound 12c]
Maximum Tolerated Dose (MTD) [2]: 40 mg/kg | AUCInf [3, 15]: 2137 ± 455 ng·h/mL | AUCextrap [3, 15]: 12.9 ± 5.6% | Cl3 [3, 15]: 80.3 ± 16.6 mL/min/kg | Cmax [3, 15]: 3975 ± 739 ng/mL | MRT [3, 15]: 9.13 ± 3.17 h | T1/2 [3, 15]: 11 ± 2.37 h | Vss—obs [3, 15]: 46.3 ± 23.3 L/kg

CC(C)C[n+]1c(/C=C/c2ccc(N(C)C)cc2)cc(-c2ccc(Br)cc2)cc1-c1ccc(Br)cc1.[I-] [EL-1]
Lipid II binding affinity [4]: below micromolar | MIC SA (Staphylococcus aureus; S. aureus USA300 (MRSA), average of two replicates): 0.5 µg/mL | MIC EF (Enterococcus faecium; E. faecium EF1509 (VRE), average of two replicates): 1 µg/mL | MIC AB (Acinetobacter baumannii; A. baumannii 2-2-2 (colistin-resistant clinical isolate), average of two replicates): 4 µg/mL | AUCInf ([5]; mouse): 1528 ± 286 ng·h/mL | AUCextrap ([5]; mouse): 5.15 ± 1.28% | Cl3 ([5]; mouse): 111 ± 20 mL/min/kg | Cl—obs ([5]; mouse): 111 ± 20 mL/min/kg | MRT ([5]; mouse): 4.42 ± 0.72 h | T1/2 ([5]; mouse): 8.33 ± 0.84 h | CC50 (HeLa cells; HeLa cells, exposure 24 hour): 5 µg/mL | Maximum Tolerated Dose (MTD) [2]: 25 mg/kg

Cc1ccc(-c2cc(-c3ccc(Br)cc3)cc(/C=C/c3ccc(N(C)C)cc3)[n+]2C)c(C)c1.[I-] [Compound 9s, (E)-4-(4-bromophenyl)-2-(4-(dimethylamino)styryl)-6-(2,4-dimethylphenyl)-1-methylpyridin-1-ium iodide]
MIC (Staphylococcus aureus; [9]): 0.25 µg/mL | MIC (Staphylococcus aureus; [10]): 0.25 µg/mL | MIC (Enterococcus faecium; [11]): 1 µg/mL | MIC (Enterococcus faecium; [12]): 1 µg/mL | MIC (Acinetobacter baumannii; [13]): 16 µg/mL | MIC (Acinetobacter baumannii; [14]): 16 µg/mL | CC50 at 24 h [1]: 3.5 µg/mL

CC(=O)NC[C@H]1CN(c2ccc(N3CCOCC3)c(F)c2)C(=O)O1 [Linezolid, linezolid, reference compound]
MIC Staphylococcus aureus (Staphylococcus aureus; MMX#-ATCC# 100-29213): 4 µg/mL (≈ 11.9 µM) | MIC Staphylococcus aureus (MRSA) (Staphylococcus aureus; MMX#-ATCC# 757-NA, methicillin-resistant): 4 µg/mL (≈ 11.9 µM) | MIC Enterococcus faecalis (Enterococcus faecalis; MMX#-ATCC# 101-29212): 2 µg/mL (≈ 5.93 µM) | MIC Enterococcus faecalis (VRE) (Enterococcus faecalis; MMX#-ATCC# 848-NA, vancomycin-resistant): 2 µg/mL (≈ 5.93 µM) | MIC Escherichia coli (Escherichia coli; MMX#-ATCC# 102.25922): > 64 µg/mL | MIC Streptococcus pneumoniae (PRSP) (Streptococcus pneumoniae; MMX#-ATCC# 884-NA, penicillin-resistant): 2 µg/mL (≈ 5.93 µM) | MIC Streptococcus pneumoniae (Streptococcus pneumoniae; MMX#-ATCC# 1195-49619): 2 µg/mL (≈ 5.93 µM) | MIC Pseudomonas aeruginosa (Pseudomonas aeruginosa): > 64 µg/mL

CCN(CC)c1ccc(/C=C/c2cc(-c3ccc(Br)cc3)cc(-c3ccc(C)c(C)c3)[n+]2C)cc1.[I-] [Compound 9v, (E)-4-(4-bromophenyl)-2-(4-(diethylamino)styryl)-6-(3,4-dimethylphenyl)-1-methylpyridin-1-ium iodide]
MIC (Staphylococcus aureus; [9]): 2 µg/mL | MIC (Staphylococcus aureus; [10]): 2 µg/mL | MIC (Enterococcus faecium; [11]): 4 µg/mL | MIC (Enterococcus faecium; [12]): 4 µg/mL | MIC (Acinetobacter baumannii; [13]): 4 µg/mL | MIC (Acinetobacter baumannii; [14]): 4 µg/mL | CC50 at 24 h ([1]; HeLa cells): 5.5 µg/mL

COc1ccc2c(c1)[C@]13CCCC[C@@H]1[C@H](C2)N(C)CC3 [dextromethorphan]
intrinsic clearance [6]: 31 µL/min/mg

CN(C)c1ccc(/C=C/c2cc(-c3ccc(F)cc3)cc(-c3ccc(F)cc3)[o+]2)cc1 [Compound 7jc47-1, (E)-2-(4-(dimethylamino)styryl)-4,6-bis(4-fluorophenyl) pyrylium boron tetrafluoride salt]
Bacterial Killing S. aureus (Staphylococcus aureus; [16]): 1 | Bacterial Killing E. faecium (Enterococcus faecium; [16]): 1 | Bacterial Killing E. coli (Escherichia coli; [16]): >64 | AUCextrap ([5]; CD1, mouse): 2.25 ± 1.13% | Cl3 ([5]; CD1, mouse): 23.6 ± 1.7 mL/min/kg | AUC(0-inf) (in vivo [7]): 578 ± 175 ng·h/mL | Cmax (in vivo [7]): 3220 ± 1500 ng/mL | MRT (in vivo [7]): 1.74 ± 0.49 h | Vd (in vivo [7]): 46.3 ± 12.9 L/kg | half-life (in vivo [7]): ~7 h | MTD at 72 h (in vivo [8]): 60 mg/kg | cytotoxicity in vitro (HeLa cells): no observable cytotoxicity in vitro | T1/2 ([3]; mouse, in vivo, iv, 10 mg/kg): 6.81 ± 1.33 h
